Data published in publication PMC9081605, “A High-Throughput Toxicity Screen of 42 Per- and Polyfluoroalkyl Substances (PFAS) and Functional Assessment of Migration and Gene Expression in Human Placental Trophoblast Cells” (Frontiers in Toxicology, 2022).

Experiments:
Format in all cases: cell-based, human
JEG-3 cells [1] = experiment: CellTiter-Glo luminescent cell viability assay (HTTS); details: for Viability ↑, lowest concentration at which the mean response value exceeded the mean control value ± 2*SD (rough binning): increase; for cell viability relative to vehicle control (rough binning): after 24 h, in at least one concentration
Source text: (§1) JEG-3 human choriocarcinoma trophoblastic cells (American Type Culture Collection, VA, United States) were maintained in sterile-filtered Minimum Essential Media (MEM) supplemented with L-glutamine and phenol red (Thermo Fisher Scientific, MA, United States), 10% (v/v) heat-inactivated BenchMark Fetal Bovine Serum (Gemini Bio, CA, United States), 1% (v/v) sodium pyruvate (Thermo Fisher Scientific, MA, United States), and 1% (v/v) penicillin streptomycin (Sigma Aldrich, MO, United States). Cells were maintained in an incubator at 37°C with 5% CO2. JEG-3 cells were cultured in 10 cm tissue culture plates and cell passage numbers were recorded.
(§2) A total of 42 perfluoroalkyl substances (PFAS) were evaluated (Supplementary Table S1 contains source and purity). PFAS stock solutions were maintained in 100% methanol as previous work has shown certain PFAS degrade when stored in dimethyl sulfoxide (DMSO; [Gaballah et al., 2020]). […] The vehicle control group consisted of 97.5% media + 2.5% methanol to match the concentration of methanol in the media at the highest PFAS concentration tested (500 µM). Menadione (50–500 µM) was used as a positive control for cytotoxicity assessment. PFAS were de-identified and assigned random numbers to eliminate bias. Chemical exposure plate maps were designed so that all experimental conditions were tested in at least technical duplicates per plate. The outer edges of each plate received media alone and were excluded from all analyses to avoid edge effects. Each plate map included 14 technical replicates of the vehicle control group and 14 technical replicates of media only. Biological replicates were defined as separate 384 well plates tested on separate days using different cell passages. The experimental workflow is depicted in Supplementary Figure S1.
(§3) JEG-3 cells were counted using a Z2 Coulter Particle Counter (Beckman Coulter, CA, United States) and seeded at a density of 2,500 cells per well in black-walled, clear bottom 384 well plates (Corning, #3764) and allowed to adhere overnight. Approximately 24 h later, 384 well plates were imaged using an IncuCyte Zoom live cell imager (Essen BioScience Inc., MI, United States) to obtain baseline cellular confluence measurements prior to chemical dosing (0 h). Media was removed from wells and replaced with fresh media containing chemical treatments (exposure media) using a Viaflo liquid handling device (Integra Biosciences, NH, United States). Within 30 min of exposure media application, plates were again imaged for cellular confluence using the IncuCyte Zoom. Plates were incubated with exposure media for 24 h and then imaged again using the IncuCyte Zoom (24 h).
In the same plate evaluated for mitochondrial membrane potential, cell viability measures were duplexed using the CellTiter-Glo (CTG) Luminescent Cell Viability Assay (Promega, WI, United States). CTG reagent was added to each well at a volume of 20 µl. The plate was left at room temperature to incubate for 5 min and then 20 µl from each well was transferred to a low-volume, round-bottom, white 384 well plate (Corning, NY, United States). The CTG reagent lyses cellular and mitochondrial membranes and binds to adenosine triphosphate (ATP) released by cells, which produces a luminescence signal. The intensity of the luminescence was considered a proxy measure for the number of live cells in a well. The luminescence intensities were measured using the CLARIOstar plate reader.
HTTS data were analyzed using a custom data analysis script in R v 1.2.5019 ([R Core Team, 2019]). Briefly, raw data points corresponding to the confluence measurements at 0 and 24 h, the fluorescence intensities corresponding to MMP, and the relative luminescence units (RLU) corresponding to cell viability were imported directly from Microsoft Excel into the R programming environment, RStudio. Separate plates run on separate days using different JEG-3 passages were considered as biologic replicates. […]

JEG-3 cells [2] = experiment: Mitochondrial membrane potential, JC-10 assay (HTTS); details: for EC50: four-parameter fit, estimates meeting inclusion criteria
Source text: as §1, §2, §3
The JC-10 assay (Enzo Life Sciences, NY, United States) was used to evaluate mitochondrial membrane potential, the main bioenergetic parameter that regulates respiratory rate, ATP synthesis and reactive oxygen species generation. In cells with polarized mitochondrial membranes, the JC-10 dye localizes to the mitochondrial matrix and forms red fluorescent aggregates (540/590 nm). In cells with depolarized mitochondrial membranes, the JC-10 dye localizes in the cytoplasm and converts to a green fluorescent monomer (490/525 nm). Mitochondrial membrane potential was calculated as the ratio of the green and red fluorescence intensities within a well.
At the end of the 24 h exposure period, exposure media was removed from the plate. The plate wells were then washed with 1x phosphate buffered saline (1x PBS). After washing, the JC-10 reagent was suspended in fresh 1x PBS and 20 µl was added to each well at a final concentration of 20 μM (Enzo Life Sciences, NY, United States). The plate was incubated for 1 h at 37°C, and the fluorescence intensities at excitation/emission wavelengths of 490/525 nm and 540/590 nm were measured using a CLARIOstar (BMG Labtech, Offenburg, Germany) plate reader, respectively.
HTTS data were analyzed using a custom data analysis script in R v 1.2.5019 ([R Core Team, 2019]). […]

JEG-3 cells [3] = experiment: Proliferation, change in confluence 0-24 h (IncuCyte Zoom, HTTS); details: for minimal effective concentration: read-out: Prolif ↓, lowest concentration at which the mean response value exceeded the mean control value ± 2*SD (rough binning); for Prolif ↑, lowest concentration at which the mean response value exceeded the mean control value ± 2*SD (rough binning): increase; for cellular proliferation relative to vehicle control (rough binning): after 24 h, in at least one concentration
Source text: as §1, §2, §3
Plate well bottom images were evaluated using automated cell masking. The automated cell masking program was developed using IncuCyte Zoom base software. Cell masking parameters were defined using a training set of JEG-3 cell images obtained prior to conducting the experiments and following IncuCyte Zoom software recommendations. Briefly, the training images were obtained from cell culture plates with varying levels of JEG-3 cellular confluence (ranging from ∼15% confluent to ∼95% confluent). Parameters for the automated cell masking were first manually set by an experimenter for 3-6 images of low (∼15–30%), medium (∼30–70%), and high confluence (∼70% or greater). The training images were then evaluated by the automated masking program and manually checked to ensure the parameters were sufficiently strict to ignore background (e.g., blank space on the plate well bottom) but adequately sensitive to detect cell borders. The masking program was then implemented on the experimental plates to obtain a baseline cellular confluence measurement at 0 h and a second confluence measurement at 24 h. […]

[4] = Homo sapiens, JEG-3, 24 h, read-out: Viability EC50 ± SD, JEG-3 cells, 24 h exposure, four-parameter fit, estimates meeting inclusion criteria
[5] = Homo sapiens, JEG-3, 24 h, read-out: Proliferation EC50 ± SD, JEG-3 cells, 24 h exposure, four-parameter fit, estimates meeting inclusion criteria

Row | SMILES | EC50 (JEG-3 cells [1]; [4]) | Prolif ↑, lowest concentration at which the mean response value exceeded the mean control value ± 2*SD (rough binning) (JEG-3 cells [3]; JEG-3 cells, 24 h) | cellular proliferation relative to vehicle control (rough binning) (JEG-3 cells [3]) | Viability ↑, lowest concentration at which the mean response value exceeded the mean control value ± 2*SD (rough binning) (JEG-3 cells [1]; JEG-3 cells, 24 h) | cell viability relative to vehicle control (rough binning) (JEG-3 cells [1]) | also measured
1 | OCCC(F)(F)C(F)(F)C(F)(F)C(F)(F)C(F)(F)C(F)(F)C(F)(F)C(F)(F)F [8:2 Fluorotelomer alcohol] | 35.7 ± 36.5 µM |  |  |  |  | EC50 (JEG-3 cells [1]; Homo sapiens, JEG-3, 24 h, read-out: viability EC50 ± SE, JEG-3 cells, 24 h): 36 ± 37 µM; EC50 (JEG-3 cells [2]; Homo sapiens, JEG-3, 24 h, read-out: MMP EC50 ± SD, JEG-3 cells, 24 h exposure): 95.1 ± 15.3 µM
2 | O=C(O)C(F)(OC(F)(F)C(F)(F)C(F)(F)F)C(F)(F)F (stereo not shown) [Ammonium perfluoro-2-methyl-3-oxahexanoate] |  |  |  |  |  | minimal effective concentration (JEG-3 cells [3]; Homo sapiens, JEG-3, 24 h): 50 µM; EC50 (JEG-3 cells [3]; Homo sapiens, JEG-3, read-out: Proliferation EC50 ± SD (raw values), JEG-3 cells, raw model output including fits that did not meet inclusion criteria): 997 ± 952 µM
3 | O=C(O)C(F)(OC(F)(F)C(F)(F)C(F)(F)F)C(F)(F)F (stereo not shown) [Perfluoro-2-methyl-3-oxahexanoic acid] |  | 450 µM | increased cellular proliferation |  |  | EC50 (JEG-3 cells [3]; read-out: Proliferation EC50 ± SD (raw values), JEG-3 cells, raw model output including fits that did not meet inclusion criteria): 1110 ± 267 µM; minimal effective concentration (JEG-3 cells [2]; Homo sapiens, JEG-3, 24 h, read-out: MMP ↓, lowest concentration at which the mean response value exceeded the mean control value ± 2*SD (rough binning)): 375 µM; MMP relative to vehicle control (rough binning) (JEG-3 cells [2]; after 24 h, in at least one concentration): reduced MMP
4 | O=C(O)C(F)(F)C(F)(F)C(F)(F)C(F)(F)C(F)(F)C(F)(F)C(F)(F)C(F)(F)C(F)(F)C(F)(F)C(F)(F)F [Perfluorododecanoic acid] | 361 ± 30.8 µM |  |  | 50 µM | increased cell viability | EC50 (JEG-3 cells [3]; [5]): 318 ± 24.5 µM
5 | O=C(O)C(F)(F)C(F)(F)C(F)(F)C(F)(F)C(F)(F)C(F)(F)F [Perfluoroheptanoic acid] | 487 ± 409 µM |  | reduced cellular proliferation |  |  | minimal effective concentration (JEG-3 cells [3]; Homo sapiens, JEG-3, 24 h): 450 µM; EC50 (JEG-3 cells [3]; [5]): 277 ± 81.6 µM
6 | O=C(O)C(F)(F)C(F)(F)C(F)(F)C(F)(F)F [Perfluoropentanoic acid] |  |  |  | 200 µM | increased cell viability | EC50 (JEG-3 cells [2]; JEG-3 cells, 24 h exposure, read-out: MMP EC50 ± SD): 175 ± 68.4 µM
7 | O=C(O)C(F)(F)C(F)(F)C(F)(F)C(F)(F)C(F)(F)C(F)(F)C(F)(F)C(F)(F)C(F)(F)C(F)(F)C(F)(F)C(F)(F)F [Perfluorotridecanoic acid] |  | 50 µM |  | 150 µM | increased cell viability | Prolif ↓, lowest concentration at which the mean response value exceeded the mean control value ± 2*SD (rough binning) (JEG-3 cells [3]; JEG-3 cells, 24 h, decrease): 450 µM; EC50 (JEG-3 cells [3]; JEG-3 cells, 24 h exposure, four-parameter fit, estimates meeting inclusion criteria, read-out: Proliferation EC50 ± SD): 388 ± 125 µM
8 | O=S(=O)([O-])C(F)(F)C(F)(F)C(F)(F)C(F)(F)C(F)(F)F.[Na+] [Sodium perfluoropentanesulfonate] |  | 200 µM | increased cellular proliferation |  | reduced cell viability | Viability ↓, lowest concentration at which the mean response value exceeded the mean control value ± 2*SD (rough binning) (JEG-3 cells [1]; JEG-3 cells, 24 h, decrease): 350 µM; EC50 (JEG-3 cells [1]; JEG-3 cells, raw model output including fits that did not meet inclusion criteria, read-out: Viability EC50 ± SD (raw values)): 1210 µM
